Experiments:
[1] = test system: Human RL B-lymphoma cells; assay: Human RL B-lymphoma cells in SCID mice; format: in vivo; conditions: expected
Procedure: Human RL B-lymphoma cells (Beckwith et al. (1990) J. Nat. Cancer Inst. 82, 501) are maintained in vitro by passage in growth medium. The cells are washed thoroughly in PBS to remove culture components. SCID mice are injected with one million human lymphoma cells via the tail vein in 100 microliters (μl). 24-hydroxylase inhibitor treatment is initiated the following day by daily intraperitoneal (i.p.) injection of 3 mg/kg 24-hydroxylase inhibitor (VID400), alone or in combination with doxorubicin at 5 mg/kg, or vehicle. Mice are monitored for survival and significant morbidity. […] Depending on the lymphoma cell line employed, the untreated mice typically die within 3 to 6 weeks.

[2] = test system: C57BL6 murine ID8 ovarian carcinoma cell line; assay: Mouse syngeneic model of ovarian carcinoma (ID8 VEGF164/GFP); format: in vivo, C57BL6 mice; conditions: expected; for tumor growth delay compared with vehicle control: single agent (inhibitor 2 mg/kg; cisplatin 2 or 6 mg/kg)
Procedure: The efficacy of a 24-hydroxylase inhibitor, alone or in combination with a chemotherapeutic agent is tested in a mouse syngeneic model of ovarian carcinoma using methods as described in Zhang et al., (Am. J. of Pathol. (2002) 161:2295-2309). Briefly, using retroviral transfection and fluorescence-activated cell sorting, a C57BL6 murine ID8 ovarian carcinoma cell line is generated that stably overexpresses the murine VEGF164 isoform and the enhanced green fluorescence protein (GFP). The retroviral construct containing VEGF164 and GFP cDNAs is then transfected into BOSC23 cells. The cells are analyzed by FACS cell sorting, and cells showing high GFP fluorescence are identified and isolated. The ID8 VEGF164/GFP transfected cells are cultured to subconfluence and prepared in a single-cell suspension in phosphate buffer saline (PBS) and cold […] (BD Biosciences, Bedford, Mass.). Six to eight week old female C57BL6 mice are injected subcutaneously in the flank with 5×10^6 transfected or untransfected (control) cells. Animals are sacrificed eight weeks after inoculation and evaluated for tumor growth. Mice are treated with a 24-hydroxylase inhibitor (VID 400/RC-8800) beginning 3-14 days following tumor implantation. Mice are treated in the following groups, with 5 mice for each group:
The agents are administered on a daily basis for 14 days. Animals are monitored daily for body weight, and significant morbidity.

24-hydroxylase (CYP24) = target: T1, 24-hydroxylase (CYP24) (Homo sapiens, UniProt Q07973); conditions: identified by Schuster et al., J. Cell. Biochem. 88:372-380 (2003); cited from earlier work
T1 construct: confluent cultures of human keratinocytes are isolated from adult skin in serum-free keratinocyte growth medium; endogenous in cells; host or cells: primary human keratinocytes from adult skin
T1 sequence (Q07973 36-514): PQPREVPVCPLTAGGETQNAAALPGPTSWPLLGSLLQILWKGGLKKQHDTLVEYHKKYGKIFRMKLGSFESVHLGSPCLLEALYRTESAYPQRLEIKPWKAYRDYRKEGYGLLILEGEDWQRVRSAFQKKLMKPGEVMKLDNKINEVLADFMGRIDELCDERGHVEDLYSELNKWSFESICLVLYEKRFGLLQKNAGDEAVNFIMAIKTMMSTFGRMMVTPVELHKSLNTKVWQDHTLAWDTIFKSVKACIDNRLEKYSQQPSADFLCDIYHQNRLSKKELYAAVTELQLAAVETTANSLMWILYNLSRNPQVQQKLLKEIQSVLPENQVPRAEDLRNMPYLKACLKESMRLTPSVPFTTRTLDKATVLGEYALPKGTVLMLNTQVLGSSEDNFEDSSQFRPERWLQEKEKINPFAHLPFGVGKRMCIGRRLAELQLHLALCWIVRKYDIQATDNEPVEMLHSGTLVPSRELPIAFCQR

24-hydroxylase = target: T2, 24-hydroxylase (Homo sapiens, UniProt Q07973); conditions: described by Kahraman et al., J. Med. Chem. 47:6854-6863 (2004); cited from earlier work
T2 sequence (Q07973 36-514): T1 sequence (Q07973 36-514)

COc1cccc2c1C(=O)c1c(O)c3c(c(O)c1C2=O)C[C@@](O)(C(=O)CO)C[C@@H]3O[C@H]1C[C@H](N)[C@H](O)[C@H](C)O1 [doxorubicin, reference compound]
inhibition in tumor growth ([1]; doxorubicin 5 mg/kg alone, SCID mice, RL B-lymphoma): significant inhibition

O=C(NC[C@@H](c1ccccc1)n1ccnc1)c1ccc(-c2ccc(Cl)cc2)cc1 [(R)-VID400, 2-(R)-4′-Chlorobiphenyl-4-carboxylic acid (2-imidazol-1-yl-2-phenyl-ethyl)-amide]
tumor growth delay ([2]; 24-hydroxylase inhibitor 2 mg/kg + cisplatin 2 or 6 mg/kg, daily for 14 days, vs cisplatin alone at same dosage or inhibitor alone): delay longer than cisplatin alone | body weight ([2]; 24-hydroxylase inhibitor 2 mg/kg + cisplatin, vs vehicle or single therapy controls of same dosage): maintain body weight significantly more | tumor growth delay compared with vehicle control ([2]; daily for 14 days): significant delay | inhibition in tumor growth ([1]; VID400 3 mg/kg i.p. daily in combination with doxorubicin 5 mg/kg): highest growth inhibition | inhibition of 24-hydroxylase (24-hydroxylase (CYP24)): potent inhibitors

C=C1/C(=C\C=C2/CCCC3(C)C2CC[C@@H]3[C@H](C)CCS(=N)(=O)c2ccccc2)C[C@@H](O)C[C@@H]1O (stereo partly drawn) [Formula V]
potency as 24-hydroxylase inhibitor (structure activity relationships) (24-hydroxylase): most potent

N.N.[Cl][Pt][Cl] [Cisplatin, reference compound]
tumor growth delay compared with vehicle control ([2]; daily for 14 days): significant delay

C=C1/C(=C\C=C2/CCCC3(C)C2CC[C@@H]3[C@H](C)CCS(=N)(=O)c2ccc(F)cc2)C[C@@H](O)C[C@@H]1O (stereo partly drawn) [Formula VI]
potency as 24-hydroxylase inhibitor (structure activity relationships) (24-hydroxylase): slightly less potent

— patent publication US20060078494A1, “Use of inhibitors of 24-hydroxylase in the treatment of cancer” (Sapphire Therapeutics, Inc., priority 2004, published 2006)
